# According to patent publication US11666575B2, “Pyrazolo[1,5]pyrimidine-based compounds and methods of their use to treat viral infections” (Lexicon Pharmaceuticals, Inc., priority 2020, dated 2023):
# Where “and” joins values, the source holds several entries; their conditions need not be identical. Equal entries are not always repeated. Structures can show the parent of a compound that is named as a salt. Where two headings read alike, the source gives them in different places.
# Experiments:
# [1] = Cytotoxicity / viability of uninfected Huh-7 cells (XTT); conditions: human, uninfected Huh-7 cells
# Huh-7 cells = experiment: as above; conditions: for Viability (A490): cytotoxic control, raw data, Huh-7; for Viability of Huh-7 Cells (A490): 6 days, individual raw data
# [2] = system: HCoV-OC43 (Betacoronavirus 1); experiment: microbe, parasite or virus in culture; assay type: cell-based; conditions: for EC50: read-out: Efficacy
# in vitro [3] = conditions: human
# H292 cells (NCI-H292) = experiment: Cytotoxicity in uninfected H292 cells (MTT)
# HCoV-OC43 = experiment: OC43 CPE assay in Huh-7 cells (neutral red uptake); assay type: cell-based, Human coronavirus OC43; conditions: for Raw OD - Absorbance 490 nm: infected Huh-7, neutral red uptake, individual replicate; for EC50: Betacoronavirus 1, OC43, 144 h, 6 days, neutral red uptake
# [4] = system: alpha coronavirus 229E (CoV-229E); experiment: Inhibition of CoV-229E-induced CPE in MRC-5 cells (XTT); conditions: CPE reduction, CoV-229E in MRC-5 cells, 6 days
# in vitro [5] = conditions: human; remark: listed apart in the source
# [6] = Betacoronavirus 1, NCI-H292, 144 h, EC50, HCoV-OC43-infected H292 cells, MTT, 6 days
# [7] = Betacoronavirus 1, OC43, NCI-H292, 144 h
# [8] = CC50, uninfected H292 cells, MTT, 6 days
# [9] = Betacoronavirus 1, OC43, Huh-7, 0.01 μM, average ± SD of duplicates, read-out: Inhibition of OC43 Virus-Induced CPE in Huh-7 Cells
# [10] = Betacoronavirus 1, OC43, Huh-7, 0.04 μM, average ± SD of duplicates, read-out: Inhibition of OC43 Virus-Induced CPE in Huh-7 Cells
# [11] = Betacoronavirus 1, OC43, Huh-7, 0.12 μM, average ± SD of duplicates, read-out: Inhibition of OC43 Virus-Induced CPE in Huh-7 Cells
# [12] = Betacoronavirus 1, OC43, Huh-7, 0.4 μM, average ± SD of duplicates, read-out: Inhibition of OC43 Virus-Induced CPE in Huh-7 Cells
# [13] = Betacoronavirus 1, OC43, Huh-7, 1.1 μM, average ± SD of duplicates, read-out: Inhibition of OC43 Virus-Induced CPE in Huh-7 Cells
# [14] = Betacoronavirus 1, OC43, Huh-7, 10 μM, average ± SD of duplicates, read-out: Inhibition of OC43 Virus-Induced CPE in Huh-7 Cells
# [15] = Betacoronavirus 1, OC43, Huh-7, 30 μM, average ± SD of duplicates, read-out: Inhibition of OC43 Virus-Induced CPE in Huh-7 Cells
structure (smiles),measurement,setting,value
CC[C@H]1CN2CCc3cc(OC)c(OC)cc3[C@@H]2C[C@@H]1C[C@H]1NCCc2cc(OC)c(OC)cc21 [Emetine],"cytotoxicity at 6 days, 5 μM",[1],> 90%
same,"viability at 6 days, 1 µM",[1],18.3 ± 0.3%
same,"viability at 6 days, 5 µM",[1],8.2 ± 0.7%
same,Viability (A490),Huh-7 cells; 1 μm,0.176 and 0.179
same,Viability (A490),Huh-7 cells; 5 μm,0.104 and 0.111
same,inhibition of cell viability,"Huh-7 cells; tested at 5 μM, XTT",more than 90%
CCN(CC)CCNC(=O)c1c(C)[nH]c(/C=C2\C(=O)Nc3ccc(F)cc32)c1C [Sunitinib],EC50,[2]; [6],0.406 µM
same,CC50 at 6 days,in vitro [3]; uninfected MRC-5 cells,1.32 µM
same,Cytotoxicity,H292 cells (NCI-H292),10 to 50 µM
CCN(CC)CCCC(C)Nc1ccnc2cc(Cl)ccc12 (stereo not drawn) [Chloroquine],prevention of virus-induced CPE,"HCoV-OC43; 6-day assay, Huh-7 cells",potently prevented the virus-induced CPE
same,inhibition at 5 µM,"HCoV-OC43; Betacoronavirus 1, OC43, Huh-7, read-out: Inhibition of OC43 Virus-Induced CPE in Huh-7 Cells, 5 μM, control inhibitor, relative to uninfected cells (mock)",~88%
same,EC50,[2]; [7],0.4 µM
same,antiviral effect against β-coronavirus OC43 in H292 cells,[2]; 6 days,antiviral effect
same,Cytotoxicity,H292 cells (NCI-H292); [8],46.04 µM
same,EC50,[4],0.49 µM
"CCN(CC)CCNC(=O)c1c(C)[nH]c(/C=C2\C(=O)Nc3ccc(F)cc32)c1C [Sunitinib maleate, sunitinib malate]",Raw OD - Absorbance 490 nm,HCoV-OC43; 0.01 μM,0.120
same,Raw OD - Absorbance 490 nm,HCoV-OC43; 0.04 μM,0.094
same,Raw OD - Absorbance 490 nm,HCoV-OC43; 0.4 μM,0.086 and 0.090
same,Raw OD - Absorbance 490 nm,HCoV-OC43; 1.1 μM,0.094
same,Raw OD - Absorbance 490 nm,HCoV-OC43; 3.3 μM,0.312 and 0.136
same,Raw OD - Absorbance 490 nm,HCoV-OC43; 10 μM,0.214 and 0.280
same,Raw OD - Absorbance 490 nm,HCoV-OC43; 30 μM,0.051 and 0.053
same,EC50,HCoV-OC43; Huh-7 cells,> 30 µM
same,inhibition at 3.3 µM,"HCoV-OC43; Betacoronavirus 1, OC43, Huh-7, read-out: Inhibition of OC43 Virus-Induced CPE in Huh-7 Cells",17.9 ± 18.5%
same,inhibition at 0.01 µM,HCoV-OC43; [9],1.1 ± 1.9%
same,inhibition at 0.04 µM,HCoV-OC43; [10],-1.2 ± 0.4%
same,inhibition at 0.12 µM,HCoV-OC43; [11],-0.1 ± 0.4%
same,inhibition at 0.4 µM,HCoV-OC43; [12],-2.4 ± 0.4%
same,inhibition at 1.1 µM,HCoV-OC43; [13],-1 ± 0.8%
same,inhibition at 10 µM,HCoV-OC43; [14],21.4 ± 7%
same,inhibition at 30 µM,HCoV-OC43; [15],-7.8 ± 0.2%
same,CC50 at 6 days,in vitro [5],13 µM
same,"viability at 6 days, 0.01 µM",in vitro [5],92 ± 7.2%
same,"viability at 6 days, 0.04 µM",in vitro [5],100 ± 1.3%
same,"viability at 6 days, 0.12 µM",in vitro [5],99.1 ± 3.4%
same,"viability at 6 days, 0.37 µM",in vitro [5],101 ± 3.4%
same,"viability at 6 days, 1.1 µM",in vitro [5],89.7 ± 1.1%
same,"viability at 6 days, 3.3 µM",in vitro [5],82.6 ± 4.2%
same,"viability at 6 days, 10 µM",in vitro [5],72 ± 1.1%
same,"viability at 6 days, 30 µM",in vitro [5],0.8 ± 0.3%
same,"viability at 6 days, 90 µM",in vitro [5],0.4 ± 0.1%
same,Viability of Huh-7 Cells (A490),"Huh-7 cells; 0.01 μM, XTT",0.721 and 0.651
same,Viability of Huh-7 Cells (A490),"Huh-7 cells; 0.04 μM, XTT",0.738 and 0.751
same,Viability of Huh-7 Cells (A490),"Huh-7 cells; 0.12 μM, XTT",0.719 and 0.752
same,Viability of Huh-7 Cells (A490),"Huh-7 cells; 0.37 μM, XTT",0.732 and 0.765
same,Viability of Huh-7 Cells (A490),"Huh-7 cells; 1.1 μM, XTT",0.676 and 0.665
same,Viability of Huh-7 Cells (A490),"Huh-7 cells; 3.3 μM, XTT",0.642 and 0.601
same,Viability of Huh-7 Cells (A490),"Huh-7 cells; 10 μM, XTT",0.543 and 0.554
same,Viability of Huh-7 Cells (A490),"Huh-7 cells; 30 μM, XTT",0.058 and 0.055
same,Viability of Huh-7 Cells (A490),"Huh-7 cells; 90 μM, XTT",0.053 and 0.054
"COc1ncccc1-c1cnn2ccc(N3CCN(C(=O)OC4(C)COC4)CC3)nc12 [Compound 1, 3-methyloxetan-3-yl-4-(3-(2-methoxypyridin-3-yl)pyrazolo[1,5-a]pyrimidin-5-yl)piperazine-1-carboxylate]",Raw OD - Absorbance 490 nm,"HCoV-OC43; 0.01 μM, listed as Compd. 1",0.102 and 0.108
same,Raw OD - Absorbance 490 nm,"HCoV-OC43; 0.04 μM, listed as Compd. 1",0.100 and 0.097
same,Raw OD - Absorbance 490 nm,"HCoV-OC43; 0.12 μM, listed as Compd. 1",0.092 and 0.094
same,Raw OD - Absorbance 490 nm,"HCoV-OC43; 0.4 μM, listed as Compd. 1",0.087 and 0.096
same,Raw OD - Absorbance 490 nm,"HCoV-OC43; 1.1 μM, listed as Compd. 1",0.102 and 0.104
same,Raw OD - Absorbance 490 nm,"HCoV-OC43; 3.3 μM, listed as Compd. 1",0.105 and 0.103
same,Raw OD - Absorbance 490 nm,"HCoV-OC43; 10 μM, listed as Compd. 1",0.115 and 0.117
same,antiviral effect at 30 μM,"HCoV-OC43; 30 μM, Huh-7 cells, likely due to compound-induced toxicity",disappeared
same,Raw OD - Absorbance 490 nm,"HCoV-OC43; 30 μM, listed as Compd. 1",0.076 and 0.072
same,EC50,HCoV-OC43; Huh-7 cells,> 30 µM
same,inhibition at 0.01 µM,HCoV-OC43; [9],-0.2 ± 0.6%
same,inhibition at 0.04 µM,HCoV-OC43; [10],-0.8 ± 0.4%
same,inhibition at 0.12 µM,HCoV-OC43; [11],-1.7 ± 0.2%
same,inhibition at 0.4 µM,HCoV-OC43; [12],-1.9 ± 0.8%
same,inhibition at 1.1 µM,HCoV-OC43; [13],-0.2 ± 0.2%
same,inhibition at 3.3 µM,"HCoV-OC43; Betacoronavirus 1, OC43, Huh-7, 3.3 μM, average ± SD of duplicates, read-out: Inhibition of OC43 Virus-Induced CPE in Huh-7 Cells",0%
same,inhibition at 10 µM,HCoV-OC43; [14],1.8 ± 0.3%
same,inhibition at 30 µM,HCoV-OC43; [15],-4.5 ± 0.5%
same,EC50,[2]; [6],9.31 µM
same,antiviral effect against β-coronavirus OC43 in H292 cells,[2]; 6 days,significant antiviral effect
same,viability of infected H292 cells,"[2]; HCoV-OC43 infected, FIG. 6",increased with increased concentrations
same,"viability at 6 days, 0.01 µM",in vitro [5],96.9 ± 0.8%
same,"viability at 6 days, 0.04 µM",in vitro [5],100.4 ± 0.7%
same,"viability at 6 days, 0.12 µM",in vitro [5],91.4 ± 1.8%
same,"viability at 6 days, 0.37 µM",in vitro [5],88.8 ± 2.2%
same,"viability at 6 days, 1.1 µM",in vitro [5],104 ± 2.9%
same,"viability at 6 days, 3.3 µM",in vitro [5],113 ± 4.4%
same,"viability at 6 days, 10 µM",in vitro [5],117 ± 4.5%
same,"viability at 6 days, 30 µM",in vitro [5],111 ± 5.3%
same,"viability at 6 days, 90 µM",in vitro [5],57.1 ± 4.9%
same,Cytotoxicity,H292 cells (NCI-H292); [8],>300 µM
same,viability of uninfected H292 cells,"H292 cells (NCI-H292); with increased concentrations, FIG. 6",did not change significantly
same,EC50,[4],> 10 µM
same,Viability of Huh-7 Cells (A490),"Huh-7 cells; 0.01 μM, XTT, listed as Compd. 1",0.724 and 0.716
same,Viability of Huh-7 Cells (A490),"Huh-7 cells; 0.04 μM, XTT, listed as Compd. 1",0.748 and 0.941
same,Viability of Huh-7 Cells (A490),"Huh-7 cells; 0.12 μM, XTT, listed as Compd. 1",0.673 and 0.691
same,Viability of Huh-7 Cells (A490),"Huh-7 cells; 0.37 μM, XTT, listed as Compd. 1",0.675 and 0.654
same,Viability of Huh-7 Cells (A490),"Huh-7 cells; 1.1 μM, XTT, listed as Compd. 1",0.758 and 0.786
same,Viability of Huh-7 Cells (A490),"Huh-7 cells; 3.3 μM, XTT, listed as Compd. 1",0.807 and 0.850
same,Viability of Huh-7 Cells (A490),"Huh-7 cells; 10 μM, XTT, listed as Compd. 1",0.878 and 0.834
same,Viability of Huh-7 Cells (A490),"Huh-7 cells; 30 μM, XTT, listed as Compd. 1",0.844 and 0.792
same,Viability of Huh-7 Cells (A490),"Huh-7 cells; 90 μM, XTT, listed as Compd. 1",0.421 and 0.469
CCC(CC)COC(=O)[C@H](C)N[P@](=O)(OC[C@H]1O[C@@](C#N)(c2ccc3c(N)ncnn23)[C@H](O)[C@@H]1O)Oc1ccccc1 [Remdesivir],EC50,[2]; [7],37.5 µM
same,CC50 at 6 days,in vitro [3],> 2 µM
same,Cytotoxicity,H292 cells (NCI-H292); [8],>20 µM
same,EC50,[4],0.13 µM
